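Compound exposure: 48 hours, 5 concentrations, 96-well plates. At the TGI there is no net growth.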
Key:
Experiment in all cases: NCI-60 cell line screen, 48 h
[1] = tested on: SF-268 CNS
[2] = tested on: ACHN renal
[3] = tested on: HOP-92 NSCLC
[4] = tested on: NCI-H23 lung
[5] = tested on: OVCAR-3 ovarian
[6] = tested on: SK-MEL-28 melanoma
[7] = tested on: U251 CNS
[8] = tested on: HCT-15 colon
[9] = tested on: PC-3 prostate
[10] = tested on: SK-OV-3 ovarian

| Compound | TGI [1] | TGI [2] | TGI [3] | TGI [4] | TGI [5] | TGI [6] | TGI [7] | TGI [8] | TGI [9] | TGI [10] |
| --- | --- | --- | --- | --- | --- | --- | --- | --- | --- | --- |
| O=C(NCCO)c1c(O)c2ccccc2[nH]c1=O | > 100 µM | > 100 µM | > 100 µM | > 100 µM | > 100 µM | > 100 µM | > 100 µM | > 100 µM | > 100 µM | – |
| C=C1C(=O)[C@]23[C@H](O)[C@H]1CC[C@H]2[C@@]12CO[C@@]3(O)C[C@@H]1C(C)(C)CC[C@@H]2O | 20.9 µM | 18.9 µM | > 25 µM | > 25 µM | > 25 µM | 22.3 µM | – | 19.6 µM | > 25 µM | – |
| CC1(C)Oc2ccc(Cl)cc2C12CC2 | 31.6 µM | 30.1 µM | – | 59 µM | 26.7 µM | 41.7 µM | 29.4 µM | 33 µM | 27.9 µM | 44.7 µM |
| CCOC(OCC)C(CCc1ccccc1)c1c(N)nc(N)[nH]c1=O (stereo not given) | > 100 µM | – | 86.8 µM | > 100 µM | > 100 µM | > 100 µM | > 100 µM | > 100 µM | > 100 µM | 90.7 µM |
| Brc1cccc(C2(CCCC3(c4cccc(Br)n4)OCCO3)OCCO2)n1 | 71.5 µM | > 100 µM | > 100 µM | > 100 µM | > 100 µM | > 100 µM | – | > 100 µM | > 100 µM | > 100 µM |
| ClCc1c(-c2ccccc2)nn(-c2ccccc2)c1CCl | 43.6 µM | – | 7.69 µM | 34.7 µM | 26.3 µM | 32.3 µM | 27.6 µM | 27 µM | 21.4 µM | – |
| CC1NOC(NS(=O)(=O)c2ccc(N=Nc3c(O)c(C(=O)O)cc4ccccc34)cc2)C1C (stereo not given) | > 100 µM | > 100 µM | > 100 µM | – | > 100 µM | > 100 µM | > 100 µM | > 100 µM | > 100 µM | > 100 µM |
| Cc1nc2ccccc2c(=O)n1NC(=O)Cc1ccccc1 | > 100 µM | > 100 µM | > 100 µM | > 100 µM | > 100 µM | > 100 µM | > 100 µM | – | > 100 µM | > 100 µM |
| Cc1nnc(N)nc1/C=C\c1cccs1 | 37.8 µM | 33.1 µM | 97.8 µM | 55.1 µM | – | > 100 µM | > 100 µM | 29.6 µM | 56.4 µM | > 100 µM |
| O=c1[nH]c(=O)n(C2CC(O)C(CO)O2)cc1NN=NCc1ccccc1 (stereo not given) | > 100 µM | > 100 µM | – | > 100 µM | > 100 µM | > 100 µM | > 100 µM | > 100 µM | > 100 µM | > 100 µM |
| O=C(c1ccc(Cl)cc1)N(C(=S)N1CCN(c2ccccn2)CC1)c1ccccc1 | > 100 µM | > 100 µM | > 100 µM | > 100 µM | > 100 µM | > 100 µM | > 100 µM | > 100 µM | – | > 100 µM |
| CCCCNC(=S)/N=C/c1c(O)c2ccccc2oc1=O | – | > 100 µM | > 100 µM | > 100 µM | > 100 µM | > 100 µM | > 100 µM | > 100 µM | > 100 µM | > 100 µM |
| Cc1cc2nc3n(c2cc1C)C(c1c(F)cccc1F)SC3 (stereo not given) | 56.2 µM | 40.6 µM | – | 38.2 µM | 91.2 µM | 40.2 µM | 32.3 µM | > 10 µM | > 100 µM | > 100 µM |
| Cc1ccc(NC(=O)c2cccc([N+](=O)[O-])c2O)c(C)c1 | > 100 µM | 89.5 µM | – | > 100 µM | > 100 µM | > 100 µM | > 100 µM | – | – | > 100 µM |
| O=C1C[C@H](c2ccccc2)C2(C(=O)c3ccccc3C2=O)[C@@H](c2ccccc2)C1 | – | – | 90.9 µM | > 100 µM | > 100 µM | > 100 µM | > 100 µM | > 100 µM | > 100 µM | > 100 µM |
| COCC(=O)[C@]1(O)Cc2c(O)c3c(c(O)c2[C@@H](OC2CC(N)C(O)C(C)O2)C1)C(=O)c1c(OC)cccc1C3=O (stereo not given in full) | 0.267 µM | – | 1.12 µM | 0.256 µM | 0.536 µM | 0.398 µM | 1.27 µM | 0.498 µM | 1.48 µM | 4.03 µM |
| O=C1CCC2=C(CCC2)N1CCc1ccc2c(c1)OCO2 | > 100 µM | > 100 µM | – | > 100 µM | – | > 100 µM | > 100 µM | > 100 µM | > 100 µM | > 100 µM |
| COc1ccc(OC)c(CNc2ccc(O)c(C(=O)NCCc3ccc(F)cc3)c2)c1 | 29.1 µM | > 100 µM | – | > 100 µM | 28.8 µM | 27.7 µM | 24.9 µM | 44.9 µM | 32.1 µM | 46.3 µM |
| CCOC(=O)N(CC)c1c(C(F)(F)F)cc(-c2ccccc2)[nH]c1=O | – | > 100 µM | > 100 µM | > 100 µM | > 100 µM | > 100 µM | > 100 µM | > 100 µM | > 100 µM | > 100 µM |
| Cc1cc(NC2=NCCO2)c2c(c1C)CCCC2 | 54.7 µM | > 100 µM | 13.6 µM | > 100 µM | – | 40.7 µM | 63.1 µM | 49.6 µM | – | > 100 µM |
| CC[C@@]1(O)C(=O)OCc2c1cc1n(c2=O)Cc2c-1nc1ccccc1c2/C=N\NC(=O)C(N)CS (stereo not given in full) | > 100 µM | – | > 57.1 µM | 21.1 µM | > 100 µM | > 100 µM | > 34.5 µM | > 100 µM | > 100 µM | > 100 µM |
| CC(=O)c1ccc2c(c1)oc(=O)n2CCN(C)C | > 100 µM | > 100 µM | – | > 100 µM | > 100 µM | > 100 µM | > 100 µM | > 100 µM | > 100 µM | > 100 µM |
| CC(C)(C)OC(=O)NC(CCCCNC(=O)OCc1ccccc1)C(=O)NC(CCCCNC(=O)OCc1ccccc1)C(=O)ON1C(=O)CCC1=O (stereo not given) | – | – | > 100 µM | > 100 µM | – | > 100 µM | > 100 µM | > 100 µM | > 100 µM | – |
| CC(=O)c1ccc(NC(=O)/C(=N\NC(N)=O)C(C#N)CC(C)(C)C=O)cc1 (stereo not given) | > 100 µM | > 100 µM | > 100 µM | > 100 µM | – | > 100 µM | > 100 µM | > 100 µM | – | > 100 µM |

From PubChem BioAssay (NCI)
